Experimental data: patent publication US20260193180A1, “AUTOPHAGY INDUCING COMPOUNDS AND USES THEREOF” (SAMSARA THERAPEUTICS INC., priority 2022, published 2026)

Key:
[1] = test system: Human osteosarcoma U2OS cells; assay: Acidic vesicle formation (lysosome/autolysosome staining, LysoView 633 / LysoTracker Deep Red), stimulation of autophagy; assay type: cell-based; conditions: 24 hours
In short: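 U2OS cells treated with compound for 24 h, then stained 45 min at 37° C with 1× LysoView 633 or 50 nM LysoTracker Deep Red plus Hoechst nuclei. Live-cell fluorescence images (Cy5/DAPI) scored for acidic vesicle formation relative to DMSO control.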

[2] = test system: C57BL/6JRj mice injured by intra-nigral injections of alpha-synuclein and CBE; assay: Mouse model of Parkinson's disease (intra-nigral alpha-synuclein protofibrils plus CBE); assay type: in vivo; conditions: 30 mg/kg per os once a day
Excerpt: This model (run by Neuro-Sys SAS, France) uses C57BL/6JRj mice injured by intra-nigral injections of a solution containing protofibrils of alpha-synuclein (α-syn, precisely quantified by automatic Western Blot) and combined with pharmacological inhibition of GBA by conduritol B epoxide (CBE), in aged mice. The model mimics the main pathologies of PD: loss of dopaminergic neurons in the substantia nigra, neuroinflammation, deficits in motor coordination and synucleinopathy (α-syn aggregation). Any substance with positive effects in this model may be useful as a new therapeutic agent for the treatment or prevention of PD.
• Type of animal: C57BL/6JRj (Male) • Age: 18 months old • Supplier: Janvier Labs • Animal number: 10 mice per group • Acclimation and clinical signs: Animals arrived on site 7 days (one week) before the experiment to allow optimal acclimation.
Overview: CBE was administered along with the test compounds, starting on the day of the stereotaxic injections of the α-syn oligomer preparation.
Test compounds at specific concentrations (see below) were administered per os (gavage or drinking water). • Test compound treatment: The test compounds were solubilized (vehicle=water), aliquoted and stored at −20° C. Aliquots were thawed overnight at 4° C. and given once a day. Treatment started on the day of the stereotaxic injections of α-syn preparation (Day 0). Treatment was administrated until the last day of the experiment (Day 28; =day of dissection). • CBE dose and administration: 50 mg/kg, Intraperitoneal (i.p.), twice a day. • CBE treatment: Administration of CBE (vehicle=saline [NaCl 0.9%] started on the day of the stereotaxic injections of α-syn preparation (Day 0). Treatment was administrated until the last day of the experiment (Day 28; =day of dissection), • Untreated control: vehicle (saline; i.p.) administered twice a day, • Stereotaxic injections of α-syn oligomers: Human α-syn peptide (stock at 69 μM in water at −20° C.) was reconstituted at 50 μM in NaCl, 0.9% (final concentration). All mice in compound treated groups were subjected to surgery and received 2.5 μL of α-syn solution. Mice were anesthetized by isoflurane (4%, for induction), in an induction chamber coupled with a vaporizer and to an oxygen concentrator. Mice were placed on the stereotaxic frame. Anesthesia was maintained by isoflurane (2%) with a face mask coupled to the isoflurane vaporizer and oxygen concentrator machine. The skull was exposed and holes were drilled. The α-syn preparation was bilaterally injected into the SNpc, at the following coordinates: A-P, −0.3 mm; M-L, +0.12 mm; D-V, −0.45 mm. Depth of anesthesia and rectal temperature were verified every 5 minutes. After surgery, mice were allowed to recover before being placed back in the cage.
• i) Body mass • ii) Assessment of motor coordination: bar test and grid walking test • iii) Dopaminergic Tyrosine hydroxylase (TH)-positive neuron survival in the substantia nigra pars compacta (SNpc), i.e. a measure of the number of TH neurons in the SNpc • iv) α-syn area in TH positive neurons (a measure of the degree of aggregation of α-syn in TH positive neurons, in the SNpc)
• Overall: For overall evaluation and body mass, mice were observed daily, and body mass was monitored prior to drug administration. • Assessment of motor coordination: bar test.
In the third week (Week 3) post-surgery, motor coordination of the mice was assessed with the bar test. The principle of the test is based on the capacity of the mice to cross a horizontal bar connected to a platform (18 mm of diameter, 60 cm long). The test requires good coordination between front and hindlimbs, and good balance. Mice are placed at one extremity of the bar and need to reach a platform located at the other side of the bar. Motor coordination was studied after two training sessions, one and two days before the test. Three sessions were recorded by a video camera system. […]

[3] = Bioavailability / brain exposure in CD1 mice; assay type: in vivo; conditions: dose of 30 mg/kg
Method: The compounds have good properties for oral dosing and readily cross the blood brain barrier. For example, in CD1 mice, Compound 9 has a maximum concentration in brain plasma of 5067 ng/ml after 30 minutes at a dose of 30 mg/kg. Compound 12 has a maximum concentration in brain plasma of 5853 ng/ml after 8 hours at a dose of 30 mg/kg.

Structure (SMILES): CCOc1ccc(Cl)cc1CN1CC[C@@H](CN)C1.Cl [Compound 12, (S)-(1-(5-chloro-2-ethoxybenzyl)pyrrolidin-3-yl)methanamine hydrochloride]
- activation at 0.8 µM ([1]; 0.8 μM, read-out: Activity (percentage increase in acidic vesicle formation over the DMSO-treated control)): 30 to 50%
- activation at 10 µM ([1]; 10 μM, read-out: increase in acidic vesicle formation over the DMSO-treated control): ≥ 25%
- bar test: decrease in the mean time required to cross the bar compared to the α-syn/CBE injured group ([2]; week 3): 21%
- bar test: reduction in the mean number of steps required to cross the bar compared to the α-syn/CBE injured group ([2]; week 3): 2%
- bar test: reduction in the number of misplaced steps (failed strides) compared to the α-syn/CBE injured group ([2]; week 3): 33%
- decrease in the aggregation of α-syn in TH neurons (α-syn area) compared to the α-syn/CBE injured group ([2]; week 4): 10%
- grid walking test: increase in the total distance travelled during the test ([2]; week 4): 12%
- grid walking test: reduction in the mean number of failures per meter (number of missed steps) ([2]; week 4): 21%
- increase in the number of dopaminergic TH positive neurons in the SNpc compared to the α-syn/CBE injured group ([2]; week 4): 36%
- maximum concentration in brain plasma [3]: 5853 ng/mL
- time of maximum concentration in brain plasma [3]: 8 h
